Converted amounts (≈) assume the structure as drawn.
What was measured:
C. albicans = test: standard in vitro fungal cell growth inhibition assay (broth dilution, M27-P), minimum fungicidal concentration; assay type: cell-based; settings: Candida albicans, A39 clinical isolate, RPMI media, inoculum 10^4 cells, less than 0.01% survival of original inoculum
Protocol: (§1) Activity of the compounds were assessed using a standard in vitro fungal cell growth inhibition assay (the broth dilution antifungal susceptibility testing of yeast, proposed standard document M27-P, validated by the National Committee for Clinical Laboratory Standards, 1992). Briefly, this broth dilution procedure uses RPMI media, and an inoculum of 10^4 cells. Control tubes contained media alone. After the minimal inhibitor concentration was determined by the above procedure, tubes with no visible growth were subcultured to determine the minimum fungicidal concentration by using criteria of less than 0.01% survival of original inoculum. Two organisms were tested: (1) H99, a clinical isolate of C. neoformans which is fully susceptible to azoles and polyenes in vitro and in vivo; and (2) A39, a clinical isolate of C. albicans which is fully susceptible to azoles and polyenes.
(§2) The MFC's (minimum fungicidal concentration) against these two important AIDS-associated fungal infections are shown in Table 1. MFCs were determined following the method of McGinnis.

C. neoformans = test: as above; assay type: cell-based; settings: Cryptococcus neoformans, H99 clinical isolate, RPMI media, inoculum 10^4 cells, less than 0.01% survival of original inoculum
Protocol: as §1, §2

S. cerevisiae = S. cerevisiae IC50 (Table I); assay type: cell-based; settings: Saccharomyces cerevisiae
L1210 cells = test: in vitro cytotoxicity, 3H-thymidine incorporation in L1210 cells; assay type: cell-based; settings: Mus musculus, 48 hours, 6 replicates
Description: Source: L1210 cells were obtained from the American Type Culture Collection (ATCC#CCL219). This line is a mouse lymphocytic leukemia line first described by E. Law et al., J. Natl. Cancer Inst. 10, 179-192 (1949) as a tumor arising in a mouse following skin paintings with 0.2% methycholanthrene. The first report of suspension culture was reported by G. Moore et al. J. Natl. Cancer Inst. 36, 405-421 (1966). This line has been used extensively for routine screening programs of chemical agents and natural products for cytotoxic activity and is also utilized in preliminary testing for antitumor activity by the NCI in cancer chemotherapy screening studies.
The in vitro cytotoxicity studies were performed essentially as described by Denizot and Lang, "Rapid calorimetric assay for cell growth and survival: Modification of tetrazolium dye procedure giving improved sensitivity and reliability", J. Immunological Methods 89, 271 (1986), but with the following modifications. Since many of the drugs had color interference, the viability of the cells was determined with a ^3 H-thymidine incorporation method. L1210 cells in DMEM +10% fetal calf serum were plated at 2.0×10^4 cells/well. An equal volume of test compound was added to each well diluted to 2× the final concentration in the above medium. Final drug concentrations ranged from 0.05 to 50 μM. After 24 hours at 37° C., 2.5 μCi of ^3 H-Thymidine (5 Ci/mmol) was added to each well. At 48 hours, the cells were harvested onto glass filters and radioactivity was measured with a scintillation counter.
The IC50 value was determined as the concentration leading to a 50% reduction of ^3 H-thymidine incorporation relative to control wells. Each value shown in Table 1, above, resulted from 6 replicates for each compound.

Calf thymus DNA = test: DNA binding by change in melting of the DNA bound to the compounds (ΔTm); settings: 259 nm, 18° C./h heating; initial absorbance of 0.3A259
Protocol: DNA binding potency was determined for each of the compounds because previous work had determined that the binding of dicationic molecules to DNA is a prerequisite for their antimicrobial activity. See e.g., Tidwell, R. R., et al., Antimicrob. Agents Chemother. 37, 1713-1716 (1993); Bell, C. A., et al., Antimicrob. Agents Chemother. 35, 1099-1107 (1991). The DNA binding of the compounds was determined by the change in melting of the DNA bound to the compounds. The method is well documented and is a considered a standard method for determining DNA binding strength. See Cory, M. et al., J. Med. Chem. 25, 431-438 (1992). In brief, a UV-visible light spectrophotometer with a cuvette changer was interfaced to a microcomputer that recorded the cuvette temperature and DNA-absorbance data at 259 nm as the sample was heated at a rate of 18° C./h. Calf thymus DNA was used at an initial absorbance of 0.3A259. The midpoint of each denaturation curve was determined after graphic selection on the computer of the starting and ending absorbance temperature for each curve of each experiment. DNA or DNA bound to experimental compound was run in each experiment and the ΔTm s were determined from the polynucleotide TM for that experiment.

| IC50 (S. cerevisiae) | SMILES | MFC (C. albicans) | MFC (C. neoformans) | IC50 (L1210 cells) | ΔTm DNA binding (Calf thymus DNA) |
| --- | --- | --- | --- | --- | --- |
| 10 µM | c1cc(-c2nc3cc(C4=NCCN4)ccc3[nH]2)nc(-c2nc3cc(C4=NCCN4)ccc3[nH]2)c1 [Compound 3, 2,6-bis[5-(2-imidazolinyl)-2-benzimidazolyl]pyridine] | 2.6 µM (≈ 1.16 µg/mL) | 5.2 µM (≈ 2.33 µg/mL) | 1.26 µM | – |
| 45 µM | N=C(N)c1ccc2nc(-c3ccc(-c4nc5ccc(C(=N)N)cc5[nH]4)[nH]3)[nH]c2c1 [Compound 1, 2,5-bis(5-amidino-2-benzimidazolyl)pyrrole] | 5.71 µM (≈ 2.19 µg/mL) | 2.85 µM (≈ 1.09 µg/mL) | 0.21 µM | 18.1 °C |
| 95 µM | N=C(N)c1ccc2[nH]c(-c3cccc(-c4nc5cc(C(=N)N)ccc5[nH]4)n3)nc2c1 [Compound 7, 2,6-bis(5-amidino-2-benzimidazoyl)pyridine] | > 179 µM | > 179 µM | 13.6 µM | 15.3 °C |
| < 1 µM | c1cc2[nH]c(-c3ccc(-c4nc5cc(C6=NCCN6)ccc5[nH]4)[nH]3)nc2cc1C1=NCCN1 [Compound 2, 2,5-bis-[5-(2-imidazolinyl)-2-benzimidazolyl]pyrrole] | 26.8 µM (≈ 11.7 µg/mL) | 107 µM (≈ 46.6 µg/mL) | 1.07 µM | – |

Continued, molecule first:

| SMILES | IC50 (S. cerevisiae) | MFC (C. albicans) | MFC (C. neoformans) | IC50 (L1210 cells) | ΔTm DNA binding (Calf thymus DNA) |
| --- | --- | --- | --- | --- | --- |
| c1cc2[nH]c(-c3ccc(-c4nc5cc(C6=NCCN6)ccc5[nH]4)o3)nc2cc1C1=NCCN1 [Compound 10, 2,5-bis[5-(2-imidazolinyl)-2-benzimidazolyl]furan] | – | 5.21 µM (≈ 2.27 µg/mL) | 2.6 µM (≈ 1.13 µg/mL) | – | – |
| Cn1c(-c2nc3ccc(C(=N)N)cc3[nH]2)ccc1-c1nc2ccc(C(=N)N)cc2[nH]1 [Compound 4, 1-Methyl-2,5-bis(5-amidino-2-benzimidazolyl)pyrrole] | 90 µM | 2.84 µM (≈ 1.13 µg/mL) | 5.69 µM (≈ 2.26 µg/mL) | 0.81 µM | 20.3 °C |
| c1cc(-c2nc3ccc(C4=NCCCN4)cc3[nH]2)nc(-c2nc3ccc(C4=NCCCN4)cc3[nH]2)c1 [Compound 8, 2,6-bis[5-(1,4,5,6-tetrahydro-2-pyrimidinyl)-2-benzimidazolyl]pyridine] | 304 µM | > 52 µM | 19 µM (≈ 9.05 µg/mL) | 3 µM | 14.8 °C |
| N=C(N)c1ccc2nc(-c3ccc(-c4nc5ccc(C(=N)N)cc5[nH]4)o3)[nH]c2c1 [Compound 9, 2,5-bis(5-amidino-2-benzimidazolyl)furan] | – | 6.44 µM (≈ 2.48 µg/mL) | 1.61 µM (≈ 0.619 µg/mL) | – | – |
| Cn1c(-c2nc3cc(C4=NCCN4)ccc3[nH]2)ccc1-c1nc2cc(C3=NCCN3)ccc2[nH]1 [Compound 5] | > 100 µM | 5.09 µM (≈ 2.29 µg/mL) | 2.54 µM (≈ 1.14 µg/mL) | 1.51 µM | 22.5 °C |

Reference: patent US6294565A, “Methods of combatting infectious diseases using dicationic bis-benzimidazoles” (University of North Carolina at Chapel Hill, priority 2000, dated 2001)
